Several values for one entry are separate records, joined by “and”; a condition that tells them apart may be missing. Identical values can stand only once. Like-named read-outs stand apart in the source and are kept apart here.

Data set [1] is described as follows: Clinical study NG100-101: plasma pharmacokinetics of metopimazine and metabolites after a single oral 60 mg dose. It counts as in vivo, healthy adult subjects (human). Particulars: for % Drug‐related material MPZ / % Drug‐related material MPZA: based on AUClast; for % Drug‐related material MPZ / percent of total circulating drug‐related material / % Drug‐related material MPZA: single 60 mg dose; for Tmax / AUC(0-t) / Cmax: both sexes, human, po, 60 mg; for percent of total circulating drug‐related material: rough estimate based on AUClast. The method, then:
The clinical study was conducted at Biotrial Rennes, in accordance with the Declaration of Helsinki. The study (NG100‐101) was a double‐blind, placebo‐ controlled, ascending single‐ and multiple‐dose study of the safety, tolerability, and pharmacokinetics of metopimazine administered orally to healthy adult subjects. The study protocol, informed consent form, and appropriate related documents were approved by the institutional review board, and all subjects provided written informed consent prior to participation in the study. […] In the morning, after at least 10 h of fasting overnight, eight healthy adult subjects (male or female aged 18 to 45), were orally administered metopimazine (or a matching placebo). […] Blood samples were collected at the following time points: predose and 0.25, 0.5, 0.75, 1, 1.25, 1.5, 2, 3, 4, 6, 8, 12, 18, and 24 h postdose; plasma samples were obtained by centrifugation of the blood samples. A comprehensive safety and pharmacokinetic analysis was performed for each cohort for the SAD and MAD parts of the study and will be presented elsewhere. A fit‐for‐purpose discovery method was used to analyze 4 subjects from the highest single dosed cohort for the presence of metabolites. Plasma concentrations of metopimazine, metopimazine acid and metopimazine sulfoxide were quantified using LC–MS/MS methods. Venous blood samples (6 ml) for the determination of plasma concentrations of MPZ and metabolites (MPZA and MPZS) were drawn by direct venipuncture or via an intravenous catheter into K2EDTA Vacutainer® tubes. It was important to avoid hemolysis during blood collection. After collection, the blood samples were centrifuged within 60 min, at 3000 rotations per minute for 10 min at 5°C. The resulting plasma was separated into 2 equal aliquots of 1000 µl (aliquots A & B) and transferred to polypropylene tubes, which were labeled, frozen within 120 min of blood collection and stored at –70°C until required for bioanalysis. Immediately prior to bioanalysis, samples were thawed and a 200 µl aliquots were removed and analytes extracted using acetonitrile protein precipitation. The extracted samples were analyzed twice, once for quantification of MPZ and MPZA and again for MPZS quantification as described below. An MRM LC–MS/MS method was developed for MPZ and metopimazine acid (MPZA) in rat, dog, and human plasma. The method was run in reverse phase in positive ion mode. […] D6‐isotopically labeled internal standards were used for each analyte. The following m/z transitions were monitored: metopimazine 446.3 → 141.1 and metopimazine acid 447.2 → 142.1. […] An MRM LC–MS/MS method was developed to look for metopimazine sulfoxide (MPZS) in human plasma. The method was run in reverse phase in positive ion mode. The system was identical to what was described above except that a slightly longer column was used, a Supelco Discovery HS F5 100 × 4.0 mm (3 µm) column (Sigma‐Aldrich). A D6‐isotopically labeled internal standards was used for MPS and the m/z transition monitored was 462.3 → 98.1. A calibration curve was generated for the quantification of MPZS in human plasma. Noncompartmental Pharmacokinetics analysis was performed in Phoenix 64 Winnonlin version 8.1.

Data set [2] in a line: Dog PK study, single oral dose of metopimazine. The data set is classed as in vivo, beagle dogs. Particulars: beagle, plasma; Dog (male), 10 mg/kg metopimazine single oral dose, mean (SD). Here is the method: The pharmacokinetics of metopimazine (parent) and metopimazine acid (metabolite) were evaluated in three male, beagle dogs following a single oral dose of 10 mg/kg metopimazine (free base). The dogs were obtained from Marshall BioResources. Animals were weighed prior to each dose administration for the purpose of dose calculation. Metopimazine was administered in size 13 gelatin capsules. Whole venous blood samples of approximately 1.0 ml were collected from a peripheral vein of all animals for determination of metopimazine and metopimazine acid. Samples were collected at the following timepoints: 0.25, 0.5, 1, 2, 4, 8, 12, and 24 h after test article administration. All animals were sampled at each timepoint. Samples were collected in tubes containing K2EDTA and placed on ice until processed for plasma by centrifugation under refrigeration for at least 10 min at 1912 x g. After centrifugation, the supernatant was removed and stored frozen in a −70°C freezer until analyzed by LC–MS/MS.
(§1) An MRM LC–MS/MS method was developed for MPZ and metopimazine acid (MPZA) in rat, dog, and human plasma. The method was run in reverse phase in positive ion mode. […] D6‐isotopically labeled internal standards were used for each analyte. The following m/z transitions were monitored: metopimazine 446.3 → 141.1 and metopimazine acid 447.2 → 142.1.
(§2) Noncompartmental Pharmacokinetics analysis was performed in Phoenix 64 Winnonlin version 8.1.

A short description of data set [3]: Rat PK study, single oral dose of metopimazine. It counts as in vivo, Sprague Dawley rats. Particulars: Sprague Dawley, plasma, 45 mg/kg metopimazine single oral dose, mean (SD). The method, then:
The pharmacokinetics of metopimazine (parent) and metopimazine acid (metabolite) were evaluated in male and female Sprague Dawley rats following a single oral dose of 45 mg/kg metopimazine (free base). Three animals per sex in each dose group were sampled at each timepoint after administration (0.25, 0.5, 1, 2, 4, 8, 12, and 24 h). The rats (rattus norvegicus) were obtained from Envigo RMS, Inc. and were 2 months old. Animals were weighed prior to each dose administration for the purpose of dose calculation. Whole venous blood samples of approximately 0.5 ml were collected from a peripheral vein of animals for determination of exposure to metopimazine and metopimazine acid. Three animals per sex were sampled at each timepoint. Samples were collected in tubes containing K2EDTA with protease inhibitor cocktail (Sigma, # P8340, at ratio 1:100) and placed on ice until processed for plasma by centrifugation under refrigeration for at least 10 min at 1912 x g. After centrifugation, supernatant was removed and stored frozen in a −70°C freezer until analyzed by LC–MS/MS.
as §1, §2

For data set [4] the following is noted: cited from earlier work.
Data set [5] in a line: Incubation of MPZ with pooled human liver microsomes (disappearance, metabolite formation). It counts as in vitro ADME. Particulars: for Peak area at time 0 / Peak area at time 90 min: metopimazine incubation in human liver microsomes, full scan LC–MS. Here is the method: To conduct the metabolic incubation in liver microsomes in the linear range, protein concentration and the reaction time were optimized.
PAR was also used for all positive control compounds.
The degree of disappearance of each analyte was evaluated by comparing the PAR of analyte to IS or concentration in different sampling time points to the PAR of time zero, (t = 0, 100%). The percent of parent remaining values were calculated according to the following equation: %parentremaining=(meanconcentrationorPARateachsamplingtimepoint/meanconcentrationorPARoftimezero)×100

Setting [6] is: plasma, individual subjects, single oral 60 mg MPZ dose.

A word on the AUC(0-inf): it is total exposure, with the tail of the curve extrapolated. Read a low AUC(0-inf) as low exposure. For the compound `CS(=O)(=O)c1ccc2c(c1)N(CCCN1CCC(C(N)=O)CC1)c1ccccc1S2` [MPZ, metopimazine], the “% Drug‐related material MPZ” value is 6.5% and 9.9% and 6.2% and 6.8% in data set [1] (individual subjects); 7.4% in data set [1] (mean of 4 subjects). Moreover, the Tmax in data set [1] (plasma, plasma, individual subjects, single oral 60 mg MPZ dose, read-out: MPZ T max) stood at 3 h; in data set [1] (plasma, plasma, mean of 4 subjects, single oral 60 mg MPZ dose, read-out: MPZ T max) it was 1.4 h; in data set [2], 0.83 h; in data set [3] (Rat (female)), 4 h; in data set [3] (Rat (male)) it was 4 h. In addition, the AUC(0-t) in data set [1] (plasma, plasma, mean of 4 subjects, single oral 60 mg MPZ dose, read-out: MPZ AUClast) was 172 ng·h/mL. Moreover, the Cmax in data set [1] (plasma, plasma, mean of 4 subjects, single oral 60 mg MPZ dose, read-out: MPZ C max) worked out at 93.9 ng/mL; in data set [2], 416 ng/mL; in data set [3] (Rat (female)), 1730 ng/mL; in data set [3] (Rat (male)), 1080 ng/mL. Besides, the “MPZ AUClast” value in data set [1] (setting [6]) was 111.9 ng‐h/ml and 278.2 ng‐h/ml and 129.4 ng‐h/ml and 167.5 ng‐h/ml. Also, the “MPZ C max” value in data set [1] (setting [6]) is 38.9 ng/mL and 203 ng/mL and 75.6 ng/mL and 58.2 ng/mL. Further, the “MPZ T max” value in data set [1] (setting [6]) was 45 min and 60 min. Further, in data set [1], the “percent of total circulating drug‐related material” value is “less than 10%”. Also, the AUC(0-inf) in data set [2] stood at 2600 ng·h/mL; in data set [3] (Rat (female)) it was 13900 ng·h/mL; in data set [3] (Rat (male)) it was 8170 ng·h/mL. For the same compound, in data set [4], the “blood–brain barrier penetration” value is “does not penetrate the blood–brain barrier”. In addition, in data set [4] (humans, 10 mg dose of MPZ), the absolute bioavailability entry was “under 20%”. Besides, the “percent of parent remaining” value in data set [5] (1 µM MPZ, HLM 0.5 mg/ml protein, NADPH, 60 min) amounted to 37.2%. In addition, the “Peak area at time 0” value in data set [5] stood at 2373. In data set [5], the “Peak area at time 90 min” value is recorded as 715.
On to `CS(=O)(=O)c1ccc2c(c1)N(CCCN1CCC(C(=O)O)CC1)c1ccccc1S2` [MPZA, metopimazine acid], for which the “% Drug‐related material MPZA” value in data set [1] (individual subjects) is 93.0% and 89.2% and 93.3% and 92.4%; in data set [1] (mean of 4 subjects), 92.0%. For the same compound, the Tmax in data set [1] (plasma, 4 subjects, single oral 60 mg MPZ dose, read-out: Tmax, range over subjects) was 1.25 to 3 h; in data set [1] (plasma, plasma, mean of 4 subjects, single oral 60 mg MPZ dose, read-out: MPZA T max), 1.8 h; in data set [2], 2 h; in data set [3] (Rat (female)), 3 h; in data set [3] (Rat (male)), 4 h. The AUC(0-t) in data set [1] (plasma, plasma, individual subjects, single oral 60 mg MPZ dose, read-out: MPZA AUClast) was determined as 1590 ng·h/mL; in data set [1] (plasma, plasma, mean of 4 subjects, single oral 60 mg MPZ dose, read-out: MPZA AUClast), 2080 ng·h/mL. Also, the Cmax in data set [1] (plasma, plasma, mean of 4 subjects, single oral 60 mg MPZ dose, read-out: MPZA C max) is 397 ng/mL; in data set [2], 103 ng/mL; in data set [3] (Rat (female)), 110 ng/mL; in data set [3] (Rat (male)), 89 ng/mL. Further, the “MPZA AUClast” value in data set [1] (setting [6]) is 2506.1 ng‐h/ml and 1941.9 ng‐h/ml and 2265.8 ng‐h/ml. For the same compound, the “MPZA C max” value in data set [1] (setting [6]) is 241 ng/mL and 601 ng/mL and 357 ng/mL and 390 ng/mL. In data set [1] (setting [6]), the “MPZA T max” value is 3 h and 1.25 h (2×) and 1.5 h. The “percent of total circulating drug‐related material” value in data set [1] is “approximately 90%”. Moreover, the figures for the AUC(0-inf) in data set [2], in data set [3] (Rat (female)) and in data set [3] (Rat (male)) were 728 ng·h/mL, 884 ng·h/mL and 755 ng·h/mL, respectively. Moreover, in data set [4] (clinical doses of 20 and 50 mg MPZ, single dose, preprandially or postprandially), the “share of circulating drug‐related material in plasma” value was not below 80%. For the same compound, in data set [4] (humans), the “share of circulating drug‐related material based on AUC exposure” value is reported as “over 90%”. Also, the “Peak area at time 0” value in data set [5] worked out at 0. For the same compound, the “Peak area at time 90 min” value in data set [5] was found to be 208.
